Assay results from ChEMBL document CHEMBL1125173, “Cannabimimetic activity of novel enantiomeric, benzofuran cannabinoids” (1990).

Experiments:
Type in all cases: functional
Columba livia [1] = test: Effective Dose when administered at a dose of 0.78 mg/kg in pigeons; conditions: in Columbidae
Mus musculus [2] = test: Psychotropic Effect evaluated by Mouse Ring Test at a dose of 1 mg/kg
Mus musculus [3] = test: Psychotropic Effect evaluated by Mouse Ring Test at a dose of 20 mg/kg
Mus musculus [4] = test: Psychotropic Effect evaluated by Mouse Ring Test at a dose of 0.1 mg/kg
Mus musculus [5] = test: Psychotropic Effect evaluated by Mouse Ring Test at a dose of 10 mg/kg
Rattus norvegicus [6] = test: Effective Dose when administered at a dose of 0.94 mg/kg in rats
Columba livia [7] = test: Effective Dose when administered in pigeons; conditions: in Columbidae
Rattus norvegicus [8] = test: Effective Dose when administered at a dose of 0.98 mg/kg in rats
Columba livia [9] = test: Effective Dose when administered at a dose of 0.99 mg/kg in pigeons; conditions: in Columbidae

| SMILES | ED50 (Columba livia [1]) | Psychotropic Effect (Mus musculus [2]) | Psychotropic Effect (Mus musculus [3]) | Psychotropic Effect (Mus musculus [4]) | Psychotropic Effect (Mus musculus [5]) | ED50 (Rattus norvegicus [6]) | ED50 (Columba livia [7]) | ED50 (Rattus norvegicus [8]) | ED50 (Columba livia [9]) |
| --- | --- | --- | --- | --- | --- | --- | --- | --- | --- |
| C=C1[C@H]2Oc3cc(C(C)(C)CCCCCC)cc(O)c3[C@H]2[C@H]2C[C@@H]1C2(C)C | 3.57 mg/kg | 20 | 43.2 | 10 | 28.1 |  |  |  |  |
| CCCCCc1cc(O)c2c(c1)OC(C)(C)[C@@H]1CC=C(C)C[C@@H]21 [DELTA-8-TETRAHYDROCANNABINOL] |  | 20.9 |  | 13.2 | 41.3 |  |  |  |  |
| CCCCCc1cc(O)c2c(c1)OC(C)(C)[C@@H]1CCC(C)=C[C@@H]21 [DRONABINOL] |  |  |  |  |  | 0.66 mg/kg | 0.18 mg/kg |  |  |
| C=C1[C@H]2Oc3cc(C(C)(C)CCCCCC)cc(O)c3[C@H]2[C@@H]2C[C@H]1C2(C)C |  | 42 | 89.2 | 13.2 | 66.1 |  |  | 0.72 mg/kg | 0.17 mg/kg |
